Key:
[1] = test system: α-smooth muscle actin (SMA) gene expression; test: Evaluation I: TGF-β-induced gene expression of fibrosis-related factors in NHLF cells: α-SMA; assay type: cell-based, human; details: 25 μmol/L test substance 2 hours, then TGF-β 5 ng/mL 24 hours, n = 3
Experimental: NHLF cells were sown so as to make their amount 4×10^4 cells/well to each well of a 12-well plate and incubated to an extent of 80% confluent in a medium where fibroblast growth medium 2 supplement mix (FGM-2 SingleQuots, Lonza) was added to a fibroblast basal medium (FBM, Lonza). After that, incubation was conducted for 2 hours in a Dulbecco modified Eagle medium (DMEM) containing 25 μmol/L of a test substance and, after addition of […] growth factor (TGF)-β thereto so as to make its final concentration 5 ng/mL, incubation was carried out for 24 hours more.
QIAzol Lysis Reagent (QIAGEN) (1 mL) was added to the above to suspend, 200 μL of chloroform was added thereto followed by mixing and centrifugation (at 4° C. and 1500 rpm) was then conducted whereby the supernatant liquid was recovered. Total RNA was extracted and purified by treating the supernatant liquid with QIACube (QIAGEN) and RNeasy Micro Kit (QIAGEN). cDNA was prepared from the total RNA using Omniscript RT kit (QIAGEN) and Oligo(dT)12-18 Primer (Invitrogen).
Gene expression level of the fibrosis-related factors [connective tissue growth factor (CTGF), α-smooth muscle actin (SMA), fibronectin, endothelin and type I collagen (Col 1)] was measured by a conventional real time PCR method using a fluorescent dye SYBR GREEN I (Roche Diagnostics) by Light Cycler LC 480 (the same) using cDNA synthesized from the total RNA extracted in the above (2). A calibration curve was prepared by diluting the PCR product quantified by PicoGreen dsDNA Quantitation kit (Molecular probes) (a DNA quantitation kit) to an extent of 10^2˜10^7 copies/μL. From each of the resulting quantified values, copy numbers per 10000 copies of GAPDH gene being an internal standard were calculated.

TGF-β1 gene expression = test: Evaluation II: TGF-β-induced gene expression of fibrosis-related factors in NHLF cells: TGF-β1; assay type: cell-based, human; details: 30 μM test substance, 200 μg/mL pirfenidone, 30 μM DEX, 1.0 μM TPCA-1 or 10 μM FP 2 hours, then TGF-β 0.5 ng/mL 4 hours, n = 4
Experimental: (§1) NHLF cells were sown so as to make their amount 5×10^4 cells/well to each well of a 12-well plate and incubated to an extent of 80% confluent in a medium where fibroblast growth medium 2 supplement mix (FGM-2 SingleQuots, Lonza) was added to a fibroblast basal medium (FBM, Lonza). After that, incubation was conducted for 2 hours in a DMEM medium containing 30 μM of a test substance, 200 μg/mL of pirfenidone, 30 μM of dexamethasone (DEX), 1.0 μM of TPCA-1 or 10 μM of fluticasone propionate (FP) and, after TGF-β was added thereto so as to make its final concentration 0.5 ng/mL, incubation was carried out for 4 hours more.
(§2) With regard to the extraction of RNA from NHLF cells, the synthesis of cDNA from RNA and the action of the test substance to gene expression of fibrosis-related factors [CFGF, TGF-β1, fibronectin and Col 1], the tests were carried out in the same manners as in (2) and (3) of the above Test Example 3.

Col 1 gene expression = test: Evaluation II: TGF-β-induced gene expression of fibrosis-related factors in NHLF cells: Col 1; assay type: cell-based, human; details: 30 μM test substance, 200 μg/mL pirfenidone, 30 μM DEX, 1.0 μM TPCA-1 or 10 μM FP 2 hours, then TGF-β 0.5 ng/mL 4 hours, n = 4
Experimental: as §1, §2

CTGF gene expression = test: Evaluation II: TGF-β-induced gene expression of fibrosis-related factors in NHLF cells: CTGF; assay type: cell-based, human; details: 30 μM test substance, 200 μg/mL pirfenidone, 30 μM DEX, 1.0 μM TPCA-1 or 10 μM FP 2 hours, then TGF-β 0.5 ng/mL 4 hours, n = 4
Experimental: as §1, §2

[2] = test system: mice where pulmonary fibrosis was induced by bleomycin; test: Lung wet weight increase of mice where pulmonary fibrosis was induced by bleomycin; assay type: in vivo; details: ICR male mice, bleomycin 2 mg/kg i.v. 5 days; test substance 50 mg/kg or pirfenidone 200 mg/kg per os twice daily for 2 weeks; normal control 205, diseased control 303
Experimental: Bleomycin (2 mg/kg) was repeatedly injected intravenously for 5 days to ICR male mice. The mice were organized into 4 groups of normal control group, diseased control group, test substance-administered group and pirfenidone-administered group.
A test substance was suspended in 0.5 w/v % carboxymethyl cellulose sodium (CMC) and 50 mg/kg thereof was repeatedly administered per os with stirring twice daily for 2 weeks using an oral sonde for rats. Pirfenidone was suspended in 0.5 w/v % CMC and 200 mg/kg thereof was repeatedly administered per os with stirring twice daily for 2 weeks using an oral sonde for rats. To the normal control group and the diseased control group, 0.5 w/v % CMC was repeatedly administered per os according to the same administration schedule. After finishing the administration period, both lungs were excised from the mice and their wet weight was measured.

[3] = test system: fibronectin gene expression; test: Evaluation II: TGF-β-induced gene expression of fibrosis-related factors in NHLF cells: fibronectin; assay type: cell-based, human; details: 30 μM test substance, 200 μg/mL pirfenidone, 30 μM DEX, 1.0 μM TPCA-1 or 10 μM FP 2 hours, then TGF-β 0.5 ng/mL 4 hours, n = 4
Experimental: as §1, §2

## O=c1oc2c(OS(=O)(=O)c3ccc(C(F)(F)F)cc3)cccc2cc1NS(=O)(=O)c1cccc(C(F)(F)F)c1 [Compound 57, 2-Oxo-3-[[3-(trifluoromethyl)phenyl]sulfonylamino]-chromen-8-yl 4-(trifluoromethyl)benzenesulfonate]
[1]
  Copy Numbers per 10000 Copies of GAPDH α-SMA: 1166.3 copies per 10000 copies of GAP

## O=c1oc2c(OS(=O)(=O)c3cccc(Br)c3)cccc2cc1NS(=O)(=O)c1cccc(C(F)(F)F)c1 [Compound 60, 2-Oxo-3-[[3-(trifluoromethyl)phenyl]sulfonylamino]-chromen-8-yl 3-bromobenzenesulfonate]
TGF-β1 gene expression
  Copy Numbers per 10000 Copies of GAPDH TGF-β1: 707.1 copies per 10000 copies of GAP
Col 1 gene expression
  Copy Numbers per 10000 Copies of GAPDH Col 1: 650.6 copies per 10000 copies of GAP
CTGF gene expression
  Copy Numbers per 10000 Copies of GAPDH CTGF: 119.0 copies per 10000 copies of GAP
[1]
  Copy Numbers per 10000 Copies of GAPDH α-SMA: 1324.8 copies per 10000 copies of GAP
[2]
  Wet Lung Weight: 250 mg
[3]
  Copy Numbers per 10000 Copies of GAPDH Fibronectin: 1446.2 copies per 10000 copies of GAP

## O=c1oc2c(OS(=O)(=O)c3ccc(C(F)(F)F)cc3)cccc2cc1NS(=O)(=O)c1cccc(Br)c1 [Compound 58, 3-[(3-Bromophenyl)sulfonylamino]-2-oxochromen-8-yl 4-(trifluoromethyl)benzenesulfonate]
TGF-β1 gene expression
  Copy Numbers per 10000 Copies of GAPDH TGF-β1: 704.5 copies per 10000 copies of GAP
Col 1 gene expression
  Copy Numbers per 10000 Copies of GAPDH Col 1: 525.6 copies per 10000 copies of GAP
CTGF gene expression
  Copy Numbers per 10000 Copies of GAPDH CTGF: 115.8 copies per 10000 copies of GAP
[1]
  Copy Numbers per 10000 Copies of GAPDH α-SMA: 826.9 copies per 10000 copies of GAP
[3]
  Copy Numbers per 10000 Copies of GAPDH Fibronectin: 1827.5 copies per 10000 copies of GAP

## O=c1oc2c(OS(=O)(=O)c3cccc(C(F)(F)F)c3)cccc2cc1NS(=O)(=O)c1ccc(C(F)(F)F)cc1 [Compound 68, 2-Oxo-3-[[4-(trifluoromethyl)phenyl]sulfonylamino]-chromen-8-yl 3-(trifluoromethyl)benzenesulfonate]
[1]
  Copy Numbers per 10000 Copies of GAPDH α-SMA: 1007.1 copies per 10000 copies of GAP

Reference: patent US10004716B2, “Therapeutic/ preventive agent containing coumarin derivative as active ingredient” (NIPPON ZOKI PHARMACEUTICAL CO., LTD., priority 2014, dated 2018)
